Laboratory results: patent publication US10828316B2, “Method of treating bacterial infections” (priority 2016, dated 2020)
≈ marks a conversion by molar mass, not a printed value. Read-outs that look alike come from different tables or passages of the source.

Tests used:
E. coli EN001 = assay: MIC; format: cell-based, Escherichia coli
S. epidermidis EN0456 = assay: MIC; format: cell-based, Staphylococcus epidermidis
S. flexneri APV00906 = assay: MIC; format: cell-based; conditions: S. flexneri APV00906
S. sonnei APV00908 = assay: MIC; format: cell-based; conditions: S. sonnei APV00908
E. coli EN0138 = assay: MIC; format: cell-based; conditions: in FdUrd+trimethoprim+uridine combination
K. pneumoniae EN0233 = assay: MIC; format: cell-based
K. pneumoniae EN011 = assay: MIC; format: cell-based, Klebsiella pneumoniae
S. typhimurium EN0466 = assay: MIC; format: cell-based, Salmonella typhimurium
E. coli EN012 = assay: MIC; format: cell-based, Escherichia coli
E. coli EN0001 = assay: MIC; format: cell-based
K. pneumoniae EN0463 = assay: MIC; format: cell-based, Klebsiella pneumoniae
P. mirabilis ST19 EN0445 = assay: MIC; format: cell-based, Proteus mirabilis; conditions: in FdUrd+trimethoprim+uridine combination
Citrobacter sp. EN0465 = assay: MIC; format: cell-based; conditions: in FdUrd+trimethoprim+uridine combination
E. coli EN013 = assay: MIC; format: cell-based, Escherichia coli
K. pneumoniae EN0144 = assay: MIC; format: cell-based; conditions: in FdUrd+trimethoprim+uridine combination
K. pneumoniae EN010 = assay: MIC; format: cell-based, Klebsiella pneumoniae
K. pneumoniae EN0245 = assay: MIC; format: cell-based; conditions: in FdUrd+trimethoprim+uridine combination
P. aeruginosa EN015 = assay: MIC; format: cell-based, Pseudomonas aeruginosa
K. pneumoniae EN006 = assay: MIC; format: cell-based, Klebsiella pneumoniae
[1] = system: Helicobacter pylori ATTC43504; assay: MIC; format: cell-based
From the text: (§1) Inhibition of Heliobacter is important in view of increasing resistance and its association to gastric cancer.

[2] = system: Helicobacter pylori APV00918; assay: MIC; format: cell-based; conditions: in FdUrd+trimethoprim+uridine combination
From the text: as §1

E. aerogenes EN0461 = assay: MIC; format: cell-based, Enterobacter aerogenes
A. baumannii EN017 = assay: MIC; format: cell-based, Acinetobacter baumannii
S. flexneri APV00907 = assay: MIC; format: cell-based; conditions: S. flexneri APV00907
E. coli B EN0458 = assay: MIC; format: cell-based, Escherichia coli B
P. aeruginosa EN0004 = assay: MIC; format: cell-based
K. pneumoniae EN0006 = assay: MIC; format: cell-based
A. baumannii EN0007 = assay: MIC; format: cell-based, A. baumanii
K. pneumoniae EN0249 = assay: MIC; format: cell-based; conditions: in FdUrd+trimethoprim+uridine combination
P. aeruginosa EN014 = assay: MIC; format: cell-based, Pseudomonas aeruginosa; conditions: in FdUrd+trimethoprim+uridine combination
E. coli EN0135 = assay: MIC; format: cell-based; conditions: in FdUrd+trimethoprim+uridine combination
[3] = system: A. pittii or A. nosocomialis EN0180; assay: MIC; format: cell-based, Acinetobacter pittii or nosocomialis; conditions: in FdUrd+trimethoprim+uridine combination
K. pneumoniae EN0244 = assay: MIC; format: cell-based; conditions: in FdUrd+trimethoprim+uridine combination
E. coli EN002 = assay: MIC; format: cell-based, Escherichia coli
K. pneumoniae EN0436 = assay: MIC; format: cell-based
K. pneumoniae EN0401 = assay: MIC; format: cell-based
K. oxytoca EN0392 = assay: MIC; format: cell-based, Klebsiella oxytoca
E. coli ATCC 25922 = assay: MIC, in vitro sensitivity of the strain used in vivo; conditions: Escherichia coli
[4] = in FdUrd+trimethoprim+uridine combination
[5] = Combination 1 (AZT+trimethoprim+uridine)
[6] = in didanosine+trimethoprim+uridine combination
[7] = in AZT+trimethoprim+uridine combination
[8] = Combination 2 (same mixed with thymidine)

SMILES: O=c1[nH]c(=O)n([C@H]2C[C@H](O)[C@@H](CO)O2)cc1F [FdUrd]
- MIC (E. coli EN001; [4]): 0.125 µg/mL
- MIC (S. epidermidis EN0456; [4]): <0.008 µg/mL
- MIC (S. flexneri APV00906; [4]): >4 µg/mL
- MIC (S. sonnei APV00908; [4]): >4 µg/mL
- MIC (E. coli EN0138): 0.25 µg/mL
- MIC (K. pneumoniae EN0233; [4]): 0.5 µg/mL
- MIC (K. pneumoniae EN011; K. pneumoniae EN011, in FdUrd+trimethoprim+uridine combination): 0.064 µg/mL
- MIC (S. typhimurium EN0466; [4]): 0.125 µg/mL
- MIC (E. coli EN012; [4]): 0.032 µg/mL
- MIC (E. coli EN0001; [4]): 0.25 µg/mL
- MIC (K. pneumoniae EN0463; [4]): 0.25 µg/mL
- MIC (P. mirabilis ST19 EN0445): 0.5 µg/mL
- MIC (Citrobacter sp. EN0465): >4 µg/mL
- MIC (E. coli EN013; E. coli EN013, in FdUrd+trimethoprim+uridine combination): 0.016 µg/mL
- MIC (K. pneumoniae EN0144): >4 µg/mL
- MIC (K. pneumoniae EN010; [4]): 0.5 µg/mL
- MIC (K. pneumoniae EN0245): >4 µg/mL
- MIC (P. aeruginosa EN015; P. aeruginosa EN015, in FdUrd+trimethoprim+uridine combination): 1 µg/mL
- MIC (K. pneumoniae EN006; [4]): 0.5 µg/mL
- MIC [1, 4]: 0.06 µg/mL
- MIC [2]: 0.06 µg/mL
- MIC (E. aerogenes EN0461; [4]): 1 µg/mL
- MIC (A. baumannii EN017; A. baumannii EN017, in FdUrd+trimethoprim+uridine combination): 0.5 µg/mL
- MIC (S. flexneri APV00907; [4]): >4 µg/mL
- MIC (E. coli B EN0458; [4]): 0.032 µg/mL
- MIC (P. aeruginosa EN0004; [4]): >4 µg/mL
- MIC (K. pneumoniae EN0006; [4]): 0.5 µg/mL
- MIC (A. baumannii EN0007; [4]): >4 µg/mL
- MIC (K. pneumoniae EN0249): >4 µg/mL
- MIC (P. aeruginosa EN014): >4 µg/mL
- MIC (E. coli EN0135): 0.25 µg/mL
- MIC [3]: 4 µg/mL
- MIC (K. pneumoniae EN0244): >4 µg/mL
- MIC (E. coli EN002; [4]): 0.032 µg/mL
- MIC (K. pneumoniae EN0436; [4]): 0.25 µg/mL
- MIC (K. pneumoniae EN0401; [4]): >4 µg/mL
- MIC (K. oxytoca EN0392; [4]): 0.125 µg/mL

SMILES: COc1cc(Cc2cnc(N)nc2N)cc(OC)c1OC [Trimethoprim, trimethoprim]
- MIC (E. coli EN001; [5]): 0.064 µg/mL
- MIC (E. coli EN001; [4]): 0.25 µg/mL
- MIC (E. coli EN001; [6]): 0.25 µg/mL
- MIC (S. epidermidis EN0456; [5]): 0.064 µg/mL
- MIC (S. epidermidis EN0456; [6]): 0.125 µg/mL
- MIC (S. flexneri APV00906; [7]): 1 µg/mL
- MIC (S. flexneri APV00906; [4]): >8 µg/mL
- MIC (S. sonnei APV00908; [7]): 0.03 µg/mL
- MIC (S. sonnei APV00908; [4]): >8 µg/mL
- MIC (K. pneumoniae EN0233; [7]): 0.25 µg/mL
- MIC (K. pneumoniae EN011; Klebsiella pneumoniae, EN011, K. pneumoniae EN011, Combination 1 (AZT+trimethoprim+uridine)): 0.032 µg/mL
- MIC (K. pneumoniae EN011; Klebsiella pneumoniae, EN011, K. pneumoniae EN011, Combination 2 (same mixed with thymidine)): 0.25 µg/mL
- MIC (K. pneumoniae EN011; Klebsiella pneumoniae, EN011, K. pneumoniae EN011, in AZT+trimethoprim+uridine combination): 0.125 µg/mL
- MIC (K. pneumoniae EN011; Klebsiella pneumoniae, EN011, K. pneumoniae EN011, in FdUrd+trimethoprim+uridine combination): 0.125 µg/mL
- MIC (K. pneumoniae EN011; Klebsiella pneumoniae, EN011, K. pneumoniae EN011, in didanosine+trimethoprim+uridine combination): 0.25 µg/mL
- MIC (S. typhimurium EN0466; [5]): 0.064 µg/mL
- MIC (S. typhimurium EN0466; [4]): 0.25 µg/mL
- MIC (E. coli EN012; [4]): 0.064 µg/mL
- MIC (E. coli EN012; [6]): 0.125 µg/mL
- MIC (E. coli EN0001; [7]): 0.125 µg/mL
- MIC (E. coli EN0001; [4]): 0.5 µg/mL
- MIC (E. coli EN0001; [6]): 0.5 µg/mL
- MIC (K. pneumoniae EN0463; [5]): 0.125 µg/mL
- MIC (K. pneumoniae EN0463; [8]): 0.25 µg/mL
- MIC (E. coli EN013; Escherichia coli, EN013, E. coli EN013, Combination 1 (AZT+trimethoprim+uridine)): < 0.008 µg/mL
- MIC (E. coli EN013; Escherichia coli, EN013, E. coli EN013, Combination 2 (same mixed with thymidine)): < 0.008 µg/mL
- MIC (E. coli EN013; Escherichia coli, EN013, E. coli EN013, in AZT+trimethoprim+uridine combination): < 0.008 µg/mL
- MIC (E. coli EN013; Escherichia coli, EN013, E. coli EN013, in FdUrd+trimethoprim+uridine combination): 0.032 µg/mL
- MIC (E. coli EN013; Escherichia coli, EN013, E. coli EN013, in didanosine+trimethoprim+uridine combination): 0.032 µg/mL
- MIC (K. pneumoniae EN010; [5]): 0.25 µg/mL
- MIC (P. aeruginosa EN015; Pseudomonas aeruginosa, EN015, P. aeruginosa EN015, Combination 1 (AZT+trimethoprim+uridine)): 2 µg/mL
- MIC (P. aeruginosa EN015; Pseudomonas aeruginosa, EN015, P. aeruginosa EN015, Combination 2 (same mixed with thymidine)): 2 µg/mL
- MIC (P. aeruginosa EN015; Pseudomonas aeruginosa, EN015, P. aeruginosa EN015, in AZT+trimethoprim+uridine combination): 2 µg/mL
- MIC (P. aeruginosa EN015; Pseudomonas aeruginosa, EN015, P. aeruginosa EN015, in FdUrd+trimethoprim+uridine combination): 2 µg/mL
- MIC (P. aeruginosa EN015; Pseudomonas aeruginosa, EN015, P. aeruginosa EN015, in didanosine+trimethoprim+uridine combination): 2 µg/mL
- MIC (K. pneumoniae EN006; [5]): 0.125 µg/mL
- MIC [1, 7]: 0.125 µg/mL
- MIC [1, 4]: 0.125 µg/mL
- MIC [2]: 0.125 µg/mL
- MIC (E. coli ATCC 25922; ATCC25922, read-out: MIC against E. coli ATCC 25922, Plate C: TMP alone): 0.5 µg/mL (≈ 1.72 µM)
- MIC (E. coli ATCC 25922; ATCC25922, read-out: MIC against E. coli ATCC 25922, Plate F: TMP with 2 μg/ml thymidine): 1 µg/mL (≈ 3.44 µM)
- MIC (E. coli ATCC 25922; ATCC25922, read-out: MIC against E. coli ATCC 25922: TMP, Plate A: AZT + TMP with 50 μg/ml uridine): 0.06 µg/mL
- MIC (E. coli ATCC 25922; ATCC25922, read-out: MIC against E. coli ATCC 25922: TMP, Plate D: AZT + TMP with 50 μg/ml uridine and 2 μg/ml thymidine): 0.5 µg/mL
- MIC (E. aerogenes EN0461; [5]): 0.25 µg/mL
- MIC (E. aerogenes EN0461; [7]): 0.25 µg/mL
- MIC (A. baumannii EN017; Acinetobacter baumannii, EN017, A. baumannii EN017, Combination 1 (AZT+trimethoprim+uridine)): 1 µg/mL
- MIC (A. baumannii EN017; Acinetobacter baumannii, EN017, A. baumannii EN017, Combination 2 (same mixed with thymidine)): 1 µg/mL
- MIC (A. baumannii EN017; Acinetobacter baumannii, EN017, A. baumannii EN017, in AZT+trimethoprim+uridine combination): 1 µg/mL
- MIC (A. baumannii EN017; Acinetobacter baumannii, EN017, A. baumannii EN017, in FdUrd+trimethoprim+uridine combination): 1 µg/mL
- MIC (A. baumannii EN017; Acinetobacter baumannii, EN017, A. baumannii EN017, in didanosine+trimethoprim+uridine combination): 2 µg/mL
- MIC (S. flexneri APV00907; [7]): 2 µg/mL
- MIC (S. flexneri APV00907; [4]): >8 µg/mL
- MIC (E. coli B EN0458; [4]): 0.064 µg/mL
- MIC (E. coli B EN0458; [6]): 0.064 µg/mL
- MIC (P. aeruginosa EN0004; [7]): >4 µg/mL
- MIC (P. aeruginosa EN0004; [4]): >8 µg/mL
- MIC (P. aeruginosa EN0004; [6]): >8 µg/mL
- MIC (K. pneumoniae EN0006; [7]): 0.25 µg/mL
- MIC (K. pneumoniae EN0006; [4]): 1 µg/mL
- MIC (K. pneumoniae EN0006; [6]): 1 µg/mL
- MIC (A. baumannii EN0007; [7]): >4 µg/mL
- MIC (A. baumannii EN0007; [4]): >8 µg/mL
- MIC (A. baumannii EN0007; [6]): >8 µg/mL
- MIC (E. coli EN002; [8]): 0.125 µg/mL
- MIC (E. coli EN002; [4]): 0.064 µg/mL
- MIC (E. coli EN002; [6]): 0.064 µg/mL
- MIC (K. pneumoniae EN0436; [7]): 0.125 µg/mL
- MIC (K. pneumoniae EN0401; [4]): >8 µg/mL
- MIC (K. pneumoniae EN0401; [6]): >8 µg/mL
- MIC (K. oxytoca EN0392; [5]): 0.064 µg/mL
- MIC (K. oxytoca EN0392; [4]): 0.25 µg/mL
